Test results as given in PubChem BioAssay (NCI).
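Values below derive from 48-hour exposures of cells grown in 96-well plates, with endpoints linearly interpolated between the two concentrations bracketing the appropriate inhibition level. TGI denotes the concentration required for complete inhibition of growth.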

How the values were obtained:
Experiment in all cases: NCI anticancer screen, dose series, 48 h
786-0 renal = test system: 786-0 renal
A498 renal = test system: A498 renal
A549 NSCLC = test system: A549 NSCLC
ACHN renal = test system: ACHN renal
CAKI-1 renal = test system: CAKI-1 renal
CCRF-CEM leukemia = test system: CCRF-CEM leukemia
COLO 205 colon = test system: COLO 205 colon
DU-145 prostate = test system: DU-145 prostate
EKVX NSCLC = test system: EKVX NSCLC
HCC-2998 colon = test system: HCC-2998 colon
HCT-116 colon = test system: HCT-116 colon
HCT-15 colon = test system: HCT-15 colon
HOP-62 NSCLC = test system: HOP-62 NSCLC
HOP-92 NSCLC = test system: HOP-92 NSCLC
HS 578T breast = test system: HS 578T breast
HT29 colon = test system: HT29 colon
IGROV1 ovarian = test system: IGROV1 ovarian
KM12 colon = test system: KM12 colon
M14 melanoma = test system: M14 melanoma
MDA-N = test system: MDA-N
NCI-H226 lung = test system: NCI-H226 lung
NCI-H23 lung = test system: NCI-H23 lung
NCI-H460 lung = test system: NCI-H460 lung
NCI/ADR-RES ovarian = test system: NCI/ADR-RES ovarian
OVCAR-3 ovarian = test system: OVCAR-3 ovarian
OVCAR-4 ovarian = test system: OVCAR-4 ovarian
PC-3 prostate = test system: PC-3 prostate
SF-268 CNS = test system: SF-268 CNS
SF-295 CNS = test system: SF-295 CNS
SK-MEL-28 melanoma = test system: SK-MEL-28 melanoma
SK-MEL-5 melanoma = test system: SK-MEL-5 melanoma
SN12C renal = test system: SN12C renal
SNB-19 CNS = test system: SNB-19 CNS
SW-620 colon = test system: SW-620 colon
UACC-257 melanoma = test system: UACC-257 melanoma
UACC-62 melanoma = test system: UACC-62 melanoma
UO-31 renal = test system: UO-31 renal
BT-549 breast = test system: BT-549 breast
HL-60(TB) leukemia = test system: HL-60(TB) leukemia
K-562 leukemia = test system: K-562 leukemia
LOX IMVI melanoma = test system: LOX IMVI melanoma
MALME-3M melanoma = test system: MALME-3M melanoma
MCF7 breast = test system: MCF7 breast
MDA-MB-231 breast = test system: MDA-MB-231 breast
MDA-MB-435 = test system: MDA-MB-435
NCI-H522 lung = test system: NCI-H522 lung
OVCAR-5 ovarian = test system: OVCAR-5 ovarian
RPMI-8226 leukemia = test system: RPMI-8226 leukemia
RXF 393 renal = test system: RXF 393 renal
SK-MEL-2 melanoma = test system: SK-MEL-2 melanoma
SK-OV-3 ovarian = test system: SK-OV-3 ovarian
SR leukemia = test system: SR leukemia
TK-10 renal = test system: TK-10 renal
U251 CNS = test system: U251 CNS

Compound `CN(CCCNC(=O)c1cn(C)c2c1ccc1ccccc12)CCCNC(=O)c1cn(C)c2c1ccc1ccccc12` has a TGI (786-0 renal) of 4.5 µM, a TGI (A498 renal) of 47.9 µM and a TGI (A549 NSCLC) of 2.62 µM. For the same compound, the TGI (ACHN renal) was 3.33 µM, the TGI (CAKI-1 renal) was 2.87 µM and the TGI (CCRF-CEM leukemia) was greater than 100 µM. For the same compound, the TGI (COLO 205 colon) was 5.07 µM, the TGI (DU-145 prostate) was 3.08 µM and the TGI (EKVX NSCLC) was 3.42 µM. The TGI (HCC-2998 colon) was 2.7 µM, the TGI (HCT-116 colon) was 3.12 µM and the TGI (HCT-15 colon) was 3.38 µM. For the same compound, the TGI (HOP-62 NSCLC) was 2.95 µM, the TGI (HOP-92 NSCLC) was 3.57 µM and the TGI (HS 578T breast) was 3.19 µM. It also gave a TGI (HT29 colon) of 2.89 µM, a TGI (IGROV1 ovarian) of 2.31 µM and a TGI (KM12 colon) of 2.96 µM. For the same compound, the TGI (M14 melanoma) was 2.92 µM, the TGI (MDA-N) was 2.76 µM and the TGI (NCI-H226 lung) was 12 µM. For the same compound, the TGI (NCI-H23 lung) was 2.95 µM, the TGI (NCI-H460 lung) was 2.83 µM and the TGI (NCI/ADR-RES ovarian) was 3.34 µM. It also gave a TGI (OVCAR-3 ovarian) of 2.84 µM, a TGI (OVCAR-4 ovarian) of 27.3 µM and a TGI (PC-3 prostate) of 2.83 µM. It also gave a TGI (SF-268 CNS) of 3.05 µM, a TGI (SF-295 CNS) of 16.8 µM and a TGI (SK-MEL-28 melanoma) of 3.67 µM. It also gave a TGI (SK-MEL-5 melanoma) of 3.33 µM, a TGI (SN12C renal) of 2.71 µM and a TGI (SNB-19 CNS) of 5.65 µM. For the same compound, the TGI (SW-620 colon) was 6.41 µM, the TGI (UACC-257 melanoma) was 3.06 µM and the TGI (UACC-62 melanoma) was 4.68 µM. It also gave a TGI (UO-31 renal) of 2.75 µM.
`Nc1nc(N)c2c(-c3ccccc3)ccnc2n1` showed a TGI (786-0 renal) greater than 100 µM, a TGI (A498 renal) greater than 100 µM and a TGI (ACHN renal) greater than 100 µM. It also gave a TGI (BT-549 breast) greater than 100 µM, a TGI (CAKI-1 renal) greater than 100 µM and a TGI (CCRF-CEM leukemia) greater than 100 µM. It also gave a TGI (COLO 205 colon) greater than 100 µM, a TGI (DU-145 prostate) greater than 100 µM and a TGI (EKVX NSCLC) greater than 100 µM. For the same compound, the TGI (HCC-2998 colon) was greater than 100 µM, the TGI (HCT-116 colon) was greater than 100 µM and the TGI (HL-60(TB) leukemia) was greater than 100 µM. The TGI (HOP-62 NSCLC) was greater than 100 µM, the TGI (HOP-92 NSCLC) was greater than 100 µM and the TGI (HT29 colon) was greater than 100 µM. The TGI (IGROV1 ovarian) was greater than 100 µM, the TGI (K-562 leukemia) was greater than 100 µM and the TGI (LOX IMVI melanoma) was greater than 100 µM. The TGI (MALME-3M melanoma) was greater than 100 µM, the TGI (MCF7 breast) was greater than 100 µM and the TGI (MDA-MB-231 breast) was greater than 100 µM. It also gave a TGI (MDA-MB-435) greater than 100 µM, a TGI (MDA-N) greater than 100 µM and a TGI (NCI-H226 lung) greater than 100 µM. The TGI (NCI-H23 lung) was greater than 100 µM, the TGI (NCI-H460 lung) was greater than 100 µM and the TGI (NCI-H522 lung) was greater than 100 µM. The TGI (OVCAR-3 ovarian) was greater than 100 µM, the TGI (OVCAR-4 ovarian) was greater than 100 µM and the TGI (OVCAR-5 ovarian) was greater than 100 µM. The TGI (PC-3 prostate) was greater than 100 µM, the TGI (RPMI-8226 leukemia) was greater than 100 µM and the TGI (RXF 393 renal) was greater than 100 µM. For the same compound, the TGI (SF-268 CNS) was greater than 100 µM, the TGI (SF-295 CNS) was greater than 100 µM and the TGI (SK-MEL-2 melanoma) was greater than 100 µM. It also gave a TGI (SK-MEL-28 melanoma) greater than 100 µM, a TGI (SK-MEL-5 melanoma) greater than 100 µM and a TGI (SK-OV-3 ovarian) greater than 100 µM. It also gave a TGI (SN12C renal) greater than 100 µM, a TGI (SNB-19 CNS) greater than 100 µM and a TGI (SR leukemia) greater than 100 µM. It also gave a TGI (SW-620 colon) greater than 100 µM, a TGI (TK-10 renal) greater than 100 µM and a TGI (U251 CNS) greater than 100 µM. The TGI (UACC-257 melanoma) was greater than 100 µM, the TGI (UACC-62 melanoma) was greater than 100 µM and the TGI (UO-31 renal) was greater than 100 µM.
